Assay results from publication PMC11898605, “Selective Azapeptide CD36 Ligand MPE-298 Regulates oxLDL-LOX-1-Mediated Inflammation and Mitochondrial Oxidative Stress in Macrophages” (Cells, 2025).

Tests used:
RAW264.7 cells [1] = assay: mtROS production (MitoSOX Red) in RAW264.7 cells; assay type: cell-based, murine; settings: for effect of inhibitor on oxLDL-elicited mtROS production: 30 min pre-exposure, oxLDL 25 μg/mL 4 h, Figures S4C, 5F; for effect of inhibitor on MPE-298's inhibition of oxLDL-elicited mtROS production: SSO 100 μM, PP1 3 μg/mL, cytochalasin D 2 μg/mL, 2-BP 100 μM, BI-0115 5 μM, Figure 5A,B,F
Description: RAW264.7 cells (17,000 cells/well) or M1 BMDM (60,000 cells/well) in complete medium (RPMI 1640 supplemented with 10% FBS and 1% penicillin/streptomycin), were seeded in 96-well tissue culture plates and incubated overnight at 37 °C in 5% CO2. On the day of experimentation, cells were starved in RPMI medium supplemented with 1% penicillin/streptomycin and 0.2% BSA for 1 h. Cells were first pretreated with MPE-298 for 1 h and stimulated or not with oxLDL for 4 h. In other experiments, cells were preincubated with inhibitors as indicated in the figure legends prior to MPE-298 incubation and oxLDL stimulation. After the stimulation period, cells were washed with Hanks’ balanced salt solution (HBSS, Wisent Inc.) and incubated with a mixture of MitoSOX Red (5 μM), a mitochondrial superoxide indicator, and Hoechst-33342 (4 μM), a nuclear staining dye, for 20 min at 37 °C. The fluorescence intensities were analyzed using a Synergy2 (BioTek) microplate reader with the following filter sets: excitation/emission at 510/580 nm for MitoSox and 350/461 nm for Hoechst-33342. Fluorescence intensity of MitoSox was normalized by fluorescence intensity of Hoescht-33342.

RAW264.7 cells [2] = assay: Mitochondrial membrane potential (JC-1) in RAW264.7 cells; assay type: cell-based, murine; settings: for effect of inhibitor on oxLDL-elicited mitochondrial membrane depolarization: Figures S4D, 5G; for effect of inhibitor on MPE-298's reversal of oxLDL-elicited mitochondrial membrane depolarization: SSO 100 μM, PP1 3 μg/mL, 2-BP 100 μM, BI-0115 5 μM, Figure 5D,G
Description: For the measurement of the mitochondrial membrane potential (ΔΨM), treated cells were incubated in HBSS with 5,5′,6,6′-tetrachloro-1,1′,3,3′-tetraethylbenzimidazolylcarbocyanine iodide (JC-1, 5 μM), a membrane-permeable cationic dye (Invitrogen-Life Technologies, Carlsbad, CA, USA). After 20 min, cells were extensively washed with HBSS. Fluorescence from aggregated JC-1 was measured with an excitation wavelength of 550 nm and emission wavelength of 600 nm, and fluorescence from JC-1 monomer was detected with an excitation wavelength of 485 nm and emission wavelength of 535 nm. The ΔΨM was determined from the ratio of intensities at 600 nm and 535 nm.

CD36 = target: T1, CD36 (Mus musculus, UniProt Q08857); assay: BRET-based CD36 internalization assay; assay type: cell-based; settings: 30 min pretreatment: PP1 3 μg/mL, cytochalasin D 2 μg/mL, piceatannol 40 μM, 2-bromopalmitate 100 μM, SSO 100 μM, BI-0115 5 μM; then ligand 15 min
T1 construct: CD36 ORF was amplified from pCMV3-mCD36-GFPSpark; expressed in transfected cells; host or cells: J774A.1 murine macrophages, transiently co-transfected with mCD36-RlucII and rGFP-CAAX
From the text: For the construction of mouse CD36-RlucII, CD36 ORF was amplified from pCMV3-mCD36-GFPSpark using the 5′-primer NheI-CD36-Forward: […] and 3′-primer HindIII-CD36-Reverse: […] primers to introduce NheI and HindIII digestion sites sequences. The final product was subcloned in-frame into NheI/HindIII of pcDNA3.1/hygromycin (+) plasmid containing the RlucII [19]. The rGFP-CAAX plasmid, constructed as previously described, was kindly provided by Dr. Stephane Laporte.
For the BRET assay, J774A.1 cells were seeded in a 96-well plate (white, flat bottom) at a density of 35,000 cells/well in DMEM supplemented with 10% FBS and 1% penicillin/streptomycin. Cells were grown at 37 °C in 5% CO2 and 90% humidity. The next day, the culture medium was changed to DMEM 10% FBS and 0.2% penicillin/streptomycin, supplemented with 5-azacytidine (1 μM) for 2 h. Cells were transiently transfected using a mixed solution containing mCD36-RlucII plasmid (25.6 ng), rGFP-CAAX plasmid (31.7 ng), and pcDNA3.1(+) for a total of 80 ng cDNA/well. TransIT-X2® reagent was used at a cDNA-to-reagent ratio of 1 μg to 4 μL. Twenty-four hours later, cells were starved for 2 h in Tyrode’s buffer (140 mM NaCl, 2.7 mM KCl, 1 mM CaCl2, 12 mM NaHCO3, 5.6 mM D-glucose, 0.5 mM MgCl2, 0.37 mM NaH2PO4, and 25 mM HEPES, pH 7.4) supplemented with 0.01% BSA. Luminescence was induced with Prolume Purple (1.5 μM final) for 2 min in Tyrode’s buffer. Luminescence signal was measured using a Tecan Spark Multimode microplate reader (Tecan Trading AG, Männedorf, Switzerlnd) in the BRET2 mode with filter sets of 420/70 nm and 515/30 nm for detecting RlucII and rGFP signals, respectively. The BRET ratio was determined as follows: [(intensity emitted by the rGFP/intensity emitted by the Rluc2) − (intensity emitted by the rGFP/intensity emitted by the Rluc2 for the CD36-RLuc2 control cells)].
For kinetic study, transiently co-transfected J774A.1 cells were incubated at different times with MPE-298 (100 nM) or oxLDL (25 μg/mL). In experimental protocols involving pharmacological inhibitors, cells transiently co-transfected were pretreated with PP1 (3 μg/mL), cytochalasin D (2 μg/mL), piceatannol (40 μM), 2-bromopalmitate (100 μM), SSO (100 μM), and BI-0115 (5 μM) for 30 min. CD36 internalization was then induced with MPE-298 and oxLDL for 15 min. For the BRET saturation studies, the cells were transiently transfected with a fixed concentration of mCD36-RlucII plasmid (25.6 ng) and increasing concentrations of rGFP-CAAX plasmid ranging from 0 to 77 ng for 24 h.

RAW264.7 cells [3] = assay: ATTO-465-MPE-298 internalization in RAW264.7 cells; assay type: cell-based, murine; settings: 30 min pretreatment with PP1 3 μg/mL, PP2 3 μg/mL or cytochalasin D 2 μg/mL, ATTO-465-MPE-298 500 nM 15 min, acid wash, n = 3 in triplicate
Description: RAW 264.7 cells (ATCC) were seeded at 125,000 cells per well in a 96-well plate and allowed to adhere overnight in Roswell Park Memorial Institute Medium (RPMI, Wisent Inc, Saint-Jean-Baptiste, QC, Canada) supplemented with 10% FBS and 1% penicillin/streptomycin at 37 °C in 5% CO2. The cells were weaned off FBS for 2 h in RPMI-25mM Hepes, supplemented with 1% penicillin/streptomycin and 0.2% BSA. The kinetics of ligand internalization (incubation at 37 °C) and plasma membrane bound (incubation at 4 °C) were initiated by adding ATTO-465-MPE-298 at different time points. After incubation, the cells were washed 3 times with cold PBS to determine the total fluorescence and the cell surface bounds or with sodium acetate pH 4 buffer at 4 °C to assess the internalized fraction, followed by lysis in 0.5N NaOH/0.05% sodium dodecyl sulfate (SDS). For the characterization of the endocytosis pathways elicited by MPE-298, cells were pretreated with specific inhibitors 30 min before adding the fluorescent peptide as the tracer. Briefly, after being weaned off FBS, the cells were preincubated at 37 °C in 5% CO2 with cytochalasin D (2 μg/mL), as an inhibitor of actin polymerization, and with PP1 (3 μg/mL) and PP2 (3 μg/mL), as inhibitors of Src kinases. After 30 min of incubation, ATTO-465-MPE-298 was added for an additional 15 min. The fluorescence was analyzed with excitation/emission wavelengths at 510/580 nm using a BioTek Synergy2 (Agilent, Santa Clara, CA, USA)microplate reader.

p66Shc (Ser36) = assay: Western blot of p66Shc phosphorylation in RAW264.7 cells; assay type: cell-based, murine; settings: preincubation before oxLDL, BI-0115 5 μM, SSO 100 μM, Figures 7A, S5
Description: (§1) Murine RAW264.7 cells or M1 BMDMs were seeded in 6-well plates. The next day, cells were starved for 4 h and treated with MPE-298 (100 nM) or oxLDL (25 μg/mL) for the indicated times. Cells were washed with cold PBS, then lysed for 30 min in ice-cold radioimmunoprecipitation assay buffer (RIPA) (150 mM NaCl, 50 mM Tris-HCl, 1% Triton X-100, 0.2% SDS, 50 mM NaF, and 2 mM EDTA, pH 7.4) containing protease and phosphatase inhibitors (Pierce Biotechnology, Waltham, MA, USA). Cell lysates were centrifuged at 15,000× g for 20 min at 4 °C.
(§2) The protein concentration of supernatants was determined by a bicinchoninic acid (BCA) assay (Pierce Biotechnology, Waltham, MA, USA). Equal amounts of protein extracts were separated on 4–12% SDS–polyacrylamide gels and transferred to polyvinylidene difluoride (PVDF) membranes (Bio-Rad Laboratories, Hercules, CA, USA) for immunoblotting. Membranes were blotted with primary antibodies p47phox and Rac1/2/3 for phosphorylated Syk (Tyr348), as well as SRC family kinases (Tyr416), Lyn (Tyr397), JNK (Thr183/Tyr185), and p66Shc (Ser36). […] Immunoblotted bands were detected by enhanced chemiluminescence with West Femto chemiluminescent substrate (Thermo Scientific, Waltham, MA, USA) using a ChemiDoc MP Imaging System (Bio-Rad Laboratories, Hercules, CA, USA). […]

CCL2 = CCL2 secretion, ELISA; assay type: cell-based, mouse; settings: RAW264.7, SSO 100 μM, Figure 4G
Description: RAW264.7 cells were seeded at a density of 150,000/well in 48-well plates. The next day, the cells were weaned for 4 h in DMEM supplemented with 0.2% BSA, exposed to MPE-298 or oxLDL or the combination of MPE-298 and oxLDL, and incubated at 37 °C in 5% CO2 for 16 h. After the incubation period, media were collected and assessed for CCL2 chemokine using a mouse ELISA detection kit (Invitrogen-Life Technologies, Carlsbad, CA, USA) following the manufacturer’s instructions. For experiments using inhibitors, the cells were pre-exposed to SSO for 30 min prior to stimulation with MPE-298 or oxLDL.

JNK (Thr183/Tyr185) = assay: Western blot of JNK phosphorylation in RAW264.7 cells; assay type: cell-based, murine; settings: preincubation before oxLDL, BI-0115 5 μM, SSO 100 μM, Figures 7A, S5
Description: as §1, §2

| Compound | effect of inhibitor on oxLDL-elicited mtROS production (RAW264.7 cells [1]) | effect of inhibitor on MPE-298's inhibition of oxLDL-elicited mtROS production (RAW264.7 cells [1]) | effect of inhibitor on oxLDL-elicited mitochondrial membrane depolarization (RAW264.7 cells [2]) | effect of inhibitor on MPE-298's reversal of oxLDL-elicited mitochondrial membrane depolarization (RAW264.7 cells [2]) | effect of inhibitor pretreatment on MPE-298- and oxLDL-induced loss of BRET signal (CD36) | decrease of uptake of fluorescently labeled MPE-298 (RAW264.7 cells [3]) [%] | effect on oxLDL-induced p66Shc phosphorylation (p66Shc (Ser36)) | effect of preincubation on oxLDL-induced CCL2 secretion (CCL2; 30 min preincubation) | effect of pre-exposure on MPE-298's effects on oxLDL-triggered CCL2 release (CCL2) | effect on oxLDL-induced JNK phosphorylation (JNK (Thr183/Tyr185)) |
| --- | --- | --- | --- | --- | --- | --- | --- | --- | --- | --- |
| CCCCCCCCCCCCCCC(Br)C(=O)O (centres unmarked) [2-BP, 2-bromohexadecanoic acid] | neither SSO nor PP1 and 2-BP altered | blocked | prevented | did not block | abolish |  |  |  |  |  |
| C=C1[C@@H](C)[C@H]2[C@H](Cc3ccccc3)NC(=O)[C@]23[C@H](OC(C)=O)/C=C/[C@@](C)(O)C(=O)[C@@H](C)C/C=C/[C@H]3[C@@H]1O [cytochalasin D] |  | blocked the protective effect | prevented |  | completely abolished | 53 |  |  |  |  |
| Cc1ccc(-c2nn(C(C)(C)C)c3ncnc(N)c23)cc1 [PP1] | neither SSO nor PP1 and 2-BP altered | blocked the protective effect | prevented | did not block | completely abolished | 45 |  |  |  |  |
| CC(C)(C)n1nc(-c2ccc(Cl)cc2)c2c(N)ncnc21 [PP2] |  |  |  |  |  | 41 |  |  |  |  |
| CCCCCCCC/C=C\CCCCCCCC(=O)ON1C(=O)CC(S(=O)(=O)O)C1=O (centres unmarked) [SSO, sulfosuccinimidyl oleate] | neither SSO nor PP1 and 2-BP altered | blocked the protective effect | prevented | did not block | completely abolished |  | did not prevent | unaltered | completely abolished | did not prevent |
| Oc1cc(O)cc(/C=C/c2ccc(O)c(O)c2)c1 [piceatannol] |  |  |  |  | completely abolished |  |  |  |  |  |
